Drawing on ChEMBL document CHEMBL1123077, “N-2,3-Butadienyl-1,4-butanediamine derivatives: potent irreversible inactivators of mammalian polyamine oxidase” (J Med Chem, 1985), this text covers half-life for two molecules.

Series [1] can be described thus: Half life in pig liver at 50 uM. Format: ADME, organism-based, Sus scrofa. The settings on record: pig liver (preparation not specified).
Series [2] in a line: Half life in pig liver at 12 uM. It counts as ADME, organism-based, Sus scrofa. The following applies: pig liver (preparation not specified).

The half-life is the time in which the quantity being followed falls by half.

Consider `C=CCNCCCCN`, for which the half-life at 50 µM in series [1] is 35 min. Regarding `C=CCNCCCCNC`, in series [2], the half-life at 12 µM came out at 12 min.
